Molecular target: Met (Homo sapiens, UniProt P08581)
Test: Met autophosphorylation ELISA in PC-3 cells
Format: cell-based
Parameters: endogenous in cells; host or cells: PC-3 prostate cancer cells (ATCC #CRL-1435)
Conditions: cellular activity, HGF-stimulated, phospho-Met ELISA, read-out: c-Met IC50
Method: PC-3 prostate cancer cells (ATCC #CRL-1435) were seeded at 4×10^4 cells/well onto 24-well plates (Greiner #662165), in DMEM (Thermo Fisher #11995-040) containing 10% FBS (Thermo Fisher #26140-079), 1% MEM NEAA (Thermo Fisher #11140-050), 1% GlutaMax (Thermo Fisher #35050-061), and 1% Penicillin Streptomycin (Thermo Fisher #15140-122). PC-3 cells were incubated at 37° C., 5% CO2 for 24 h and then starved for 3 h in serum-free medium. Test compounds were serially diluted to produce an 8-point dose curve in fresh serum-free medium to a final concentration of 0.3% DMSO (vehicle) and added to the cells and incubated for 1 h. Cells were then stimulated with 100 ng/mL recombinant human HGF (R&D Systems #294-HG-250) for 10 min, washed with cold PBS and immediately lysed with 130 μL of cold 1× lysis buffer [20 mM Tris, 137 mM sodium chloride, 2 mM EDTA, 10% glycerol, 1% NP-40 alternative, 1 mM activated sodium orthovanadate, 1 mM PefaBloc SC (Sigma-Aldrich #11429868001), protease/phosphatase inhibitor tablet (Thermo Fisher #A32959)]. Lysates were clarified by centrifugation and 100 μL/well added into the PathScan phospho-Met (panTyr) Sandwich ELISA (Cell Signaling Technology #7333). Assay was performed according to manufacturer's instructions. Positive control wells (100% activity) contained HGF-stimulated, DMSO-treated cell lysates. Negative control wells (0% activity) contained HGF-stimulated, reference inhibitor-treated cell lysates. IC50 values were calculated by nonlinear regression analysis using a 4-parameter logistic curve fit in ActivityBase XE (IDBS).

Sequence of Met (P08581 25-1390): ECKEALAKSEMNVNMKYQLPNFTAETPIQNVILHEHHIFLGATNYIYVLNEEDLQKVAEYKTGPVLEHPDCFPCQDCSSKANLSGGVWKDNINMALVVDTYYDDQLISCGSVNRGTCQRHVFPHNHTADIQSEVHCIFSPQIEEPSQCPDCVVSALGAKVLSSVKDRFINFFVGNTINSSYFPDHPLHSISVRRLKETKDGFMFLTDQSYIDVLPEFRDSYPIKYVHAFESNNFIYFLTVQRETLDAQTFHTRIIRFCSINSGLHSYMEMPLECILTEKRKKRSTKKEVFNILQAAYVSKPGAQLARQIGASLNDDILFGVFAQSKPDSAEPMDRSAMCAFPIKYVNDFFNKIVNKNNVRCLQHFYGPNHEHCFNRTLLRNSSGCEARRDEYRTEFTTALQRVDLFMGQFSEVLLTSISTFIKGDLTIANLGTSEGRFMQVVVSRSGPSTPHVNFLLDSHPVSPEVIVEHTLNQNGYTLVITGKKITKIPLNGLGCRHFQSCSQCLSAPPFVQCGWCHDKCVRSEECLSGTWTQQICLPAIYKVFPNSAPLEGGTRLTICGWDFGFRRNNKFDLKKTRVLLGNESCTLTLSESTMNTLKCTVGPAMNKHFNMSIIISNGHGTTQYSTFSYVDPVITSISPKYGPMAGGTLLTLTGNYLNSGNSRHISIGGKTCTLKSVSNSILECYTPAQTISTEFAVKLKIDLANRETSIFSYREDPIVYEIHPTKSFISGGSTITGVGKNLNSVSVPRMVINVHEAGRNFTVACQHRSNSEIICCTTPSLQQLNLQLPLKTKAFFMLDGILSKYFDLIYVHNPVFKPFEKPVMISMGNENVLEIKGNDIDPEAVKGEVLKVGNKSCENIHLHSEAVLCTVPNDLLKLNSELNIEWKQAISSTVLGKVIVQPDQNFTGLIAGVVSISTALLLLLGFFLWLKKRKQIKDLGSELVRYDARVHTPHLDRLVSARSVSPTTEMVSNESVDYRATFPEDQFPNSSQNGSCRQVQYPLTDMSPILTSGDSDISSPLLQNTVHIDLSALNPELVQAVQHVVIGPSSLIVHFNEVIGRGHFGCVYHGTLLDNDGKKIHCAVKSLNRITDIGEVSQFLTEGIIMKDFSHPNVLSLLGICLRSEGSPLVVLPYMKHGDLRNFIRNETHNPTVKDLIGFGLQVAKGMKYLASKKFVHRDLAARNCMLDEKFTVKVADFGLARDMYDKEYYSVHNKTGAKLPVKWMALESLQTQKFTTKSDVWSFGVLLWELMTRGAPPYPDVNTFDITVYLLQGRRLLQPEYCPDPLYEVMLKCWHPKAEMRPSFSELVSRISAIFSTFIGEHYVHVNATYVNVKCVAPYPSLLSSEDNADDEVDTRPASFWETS

IC50	SMILES
10 to 100 nM	COCCn1cc(-c2ccc3c(Oc4ccc(NC(=O)C5(C(=O)Nc6ccc(F)cc6)CC5)cc4)ccnc3c2)cn1 [Compound 10, 1-N′-(4-Fluorophenyl)-1-N-[4-[7-[1-(2-methoxyethyl)pyrazol-4-yl]quinolin-4-yl]oxyphenyl]cyclopropane-1,1-dicarboxamide]
100 to 300 nM	CC1Cc2cc(F)ccc2N1C(=O)C1(C(=O)Nc2ccc(Oc3ccnc4cc(-c5cnn(C)c5)ccc34)cc2)CC1 (stereo not drawn) [Compound 80, 1-(5-Fluoro-2-methyl-2,3-dihydroindole-1-carbonyl)-N-[4-[7-(1-methylpyrazol-4-yl)quinolin-4-yl]oxyphenyl]cyclopropane-1-carboxamide]
10 to 100 nM	O=C(Nc1ccc(F)cc1)C1(C(=O)Nc2ccc(Oc3ccnc4cc(-c5ccn(C(F)F)n5)ccc34)cc2)CC1 [Compound 84, 1-N-[4-[7-[1-(Difluoromethyl)pyrazol-3-yl]quinolin-4-yl]oxyphenyl]-1-N′-(4-fluorophenyl)cyclopropane-1,1-dicarboxamide]
≤ 10 nM	O=C(Nc1ccc(F)cc1)C1(C(=O)Nc2ccc(Oc3ccnc4cc(-c5ccc(O)nc5)ccc34)cc2)CC1 [Compound 51, 1-N′-(4-Fluorophenyl)-1-N-[4-[7-(6-hydroxypyridin-3-yl)quinolin-4-yl]oxyphenyl]cyclopropane-1,1-dicarboxamide]
100 to 300 nM	Cc1noc(C)c1-c1ccc2c(Oc3ccc(NC(=O)C4(C(=O)Nc5ccc(F)cc5)CC4)cc3)ccnc2c1 [Compound 53, 1-N-[4-[7-(3,5-Dimethyl-1,2-oxazol-4-yl)quinolin-4-yl]oxyphenyl]-1-N′-(4-fluorophenyl)cyclopropane-1,1-dicarboxamide]
10 to 100 nM	O=C(Nc1ccc(F)cc1)C1(C(=O)Nc2ccc(Oc3ccnc4cc(-c5cnn(C6CCNCC6)c5)ccc34)cc2)CC1 [Compound 60, 1-N′-(4-Fluorophenyl)-1-N-[4-[7-(1-piperidin-4-ylpyrazol-4-yl)quinolin-4-yl]oxyphenyl]cyclopropane-1,1-dicarboxamide]
10 to 100 nM	O=C(Nc1ccc(F)cc1)C1(C(=O)Nc2ccc(Oc3ccnc4cc(-c5ncco5)ccc34)cc2)CC1 [Compound 66, 1-N′-(4-Fluorophenyl)-1-N-[4-[7-(1,3-oxazol-2-yl)quinolin-4-yl]oxyphenyl]cyclopropane-1,1-dicarboxamide]
10 to 100 nM	O=C(Nc1ccc(F)cc1)C1(C(=O)Nc2ccc(Oc3ccnc4cc(-c5ccc[n+]([O-])c5)ccc34)cc2)CC1 [Compound 109, 1-N′-(4-Fluorophenyl)-1-N-[4-[7-(1-oxidopyridin-1-ium-3-yl)quinolin-4-yl]oxyphenyl]cyclopropane-1,1-dicarboxamide]
100 to 300 nM	CC(C)Oc1ccc(-c2ccc3c(Oc4ccc(NC(=O)C5(C(=O)Nc6ccc(F)cc6)CC5)cc4)ccnc3c2)cn1 [Compound 50, 1-N′-(4-Fluorophenyl)-1-N-[4-[7-(6-propan-2-yloxypyridin-3-yl)quinolin-4-yl]oxyphenyl]cyclopropane-1,1-dicarboxamide]
10 to 100 nM	O=C(Nc1ccc(F)cc1)C1(C(=O)Nc2ccc(Oc3ccnc4cc(-c5cnn(C6CC6)c5)ccc34)cc2)CC1 [Compound 22, 1-N-[4-[7-(1-Cyclopropylpyrazol-4-yl)quinolin-4-yl]oxyphenyl]-1-N′-(4-fluorophenyl)cyclopropane-1,1-dicarboxamide]
10 to 100 nM	O=C(Nc1ccc(F)cc1)C1(C(=O)Nc2ccc(Oc3ccnc4cc(-c5cccnc5)ccc34)cc2)CC1 [Compound 25, 1-N′-(4-Fluorophenyl)-1-N-[4-(7-pyridin-3-ylquinolin-4-yl)oxyphenyl]cyclopropane-1,1-dicarboxamide]

Second part, the molecule before the results:

SMILES	IC50
Cn1nccc1-c1ccc2c(Oc3ccc(NC(=O)C4(C(=O)Nc5ccc(F)cc5)CC4)cc3)ccnc2c1 [Compound 54, 1-N′-(4-Fluorophenyl)-1-N-[4-[7-(2-methylpyrazol-3-yl)quinolin-4-yl]oxyphenyl]cyclopropane-1,1-dicarboxamide]	10 to 100 nM
O=C(Nc1ccc(F)cc1)C1(C(=O)Nc2ccc(Oc3ccnc4cc(-c5nnco5)ccc34)cc2)CC1 [Compound 73, 1-N′-(4-Fluorophenyl)-1-N-[4-[7-(1,3,4-oxadiazol-2-yl)quinolin-4-yl]oxyphenyl]cyclopropane-1,1-dicarboxamide]	10 to 100 nM
Cn1cnc(-c2ccc3c(Oc4ccc(NC(=O)C5(C(=O)Nc6ccc(F)cc6)CC5)cc4)ccnc3c2)c1 [Compound 69, 1-N′-(4-Fluorophenyl)-1-N-[4-[7-(1-methylimidazol-4-yl)quinolin-4-yl]oxyphenyl]cyclopropane-1,1-dicarboxamide]	≤ 10 nM
O=C(Nc1ccc(F)cc1)C1(C(=O)Nc2ccc(Oc3ccnc4cc(-c5ccncn5)ccc34)cc2)CC1 [Compound 114, 1-N′-(4-Fluorophenyl)-1-N-[4-(7-pyrimidin-4-ylquinolin-4-yl)oxyphenyl]cyclopropane-1,1-dicarboxamide]	10 to 100 nM
O=C(Nc1ccc(F)cc1)C1(C(=O)Nc2ccc(Oc3ccnc4cc(-c5cnn(C(F)F)c5)ccc34)c(F)c2)CC1 [Compound 123, 1-N′-[4-[7-[1-(Difluoromethyl)pyrazol-4-yl]quinolin-4-yl]oxy-3-fluorophenyl]-1-N-(4-fluorophenyl)cyclopropane-1,1-dicarboxamide]	10 to 100 nM
O=C(Nc1ccc(F)cc1)C1(C(=O)Nc2ccc(Oc3ccnc4cc(-c5ccn[nH]5)ccc34)cc2)CC1 [Compound 68, 1-N′-(4-Fluorophenyl)-1-N-[4-[7-(1H-pyrazol-5-yl)quinolin-4-yl]oxyphenyl]cyclopropane-1,1-dicarboxamide]	10 to 100 nM
Cc1cc2c(Oc3ccc(NC(=O)C4(C(=O)Nc5ccc(F)cc5)CC4)cc3)ccnc2cc1-c1ncc[nH]1 [Compound 120, 1-N′-(4-Fluorophenyl)-1-N-[4-[7-(1H-imidazol-2-yl)-6-methylquinolin-4-yl]oxyphenyl]cyclopropane-1,1-dicarboxamide]	10 to 100 nM
Cc1cc(-c2ccc3c(Oc4ccc(NC(=O)C5(C(=O)Nc6ccc(F)cc6)CC5)cc4)ccnc3c2)ccn1 [Compound 30, 1-N′-(4-Fluorophenyl)-1-N-[4-[7-(2-methylpyridin-4-yl)quinolin-4-yl]oxyphenyl]cyclopropane-1,1-dicarboxamide]	10 to 100 nM
CNC(=O)c1cc2c(Oc3ccc(NC(=O)C4(C(=O)Nc5ccc(F)cc5)CC4)cc3)ccnc2cc1-c1cnn(C)c1 [Compound 77, 1-N′-(4-Fluorophenyl)-1-N-[4-[6-(methylcarbamoyl)-7-(1-methylpyrazol-4-yl)quinolin-4-yl]oxyphenyl]cyclopropane-1,1-dicarboxamide]	10 to 100 nM
Cc1cc(F)cc(C)c1NC(=O)C1(C(=O)Nc2ccc(Oc3ccnc4cc(-c5cnn(C)c5)ccc34)cc2)CC1 [Compound 82, 1-N′-(4-Fluoro-2,6-dimethylphenyl)-1-N-[4-[7-(1-methylpyrazol-4-yl)quinolin-4-yl]oxyphenyl]cyclopropane-1,1-dicarboxamide]	100 to 300 nM
Cn1cc(-c2ccc3c(Oc4ccc(NC(=O)C5(C(=O)Nc6ccc(F)cc6)CC5)cc4)ccnc3c2)ccc1=O [Compound 119, 1-N′-(4-Fluorophenyl)-1-N-[4-[7-(1-methyl-6-oxopyridin-3-yl)quinolin-4-yl]oxyphenyl]cyclopropane-1,1-dicarboxamide]	10 to 100 nM
O=C(Nc1ccc(F)cc1)C1(C(=O)Nc2ccc(Oc3ccnc4cc(-c5ccnnc5)ccc34)cc2)CC1 [Compound 28, 1-N′-(4-Fluorophenyl)-1-N-[4-(7-pyridazin-4-ylquinolin-4-yl)oxyphenyl]cyclopropane-1,1-dicarboxamide]	≤ 10 nM
O=C(Nc1ccc(F)cc1)C1(C(=O)Nc2ccc(Oc3ccnc4cc(-c5cnn(C(F)(F)F)c5)ccc34)cc2)CC1 [Compound 12, 1-N′-(4-Fluorophenyl)-1-N-[4-[7-[1-(trifluoromethyl)pyrazol-4-yl]quinolin-4-yl]oxyphenyl]cyclopropane-1,1-dicarboxamide]	10 to 100 nM
C[Si](C)(C)C#Cc1ccc2c(Oc3ccc(NC(=O)C4(C(=O)Nc5ccc(F)cc5)CC4)cc3)ccnc2c1 [Compound 63, 1-N′-(4-Fluorophenyl)-1-N-[4-[7-(2-trimethylsilylethynyl)quinolin-4-yl]oxyphenyl]cyclopropane-1,1-dicarboxamide]	> 300 nM
Cn1ccc(-c2ccc3c(Oc4ccc(NC(=O)C5(C(=O)Nc6ccc(F)cc6)CC5)cc4)ccnc3c2)cc1=O [Compound 117, 1-N′-(4-Fluorophenyl)-1-N-[4-[7-(1-methyl-2-oxopyridin-4-yl)quinolin-4-yl]oxyphenyl]cyclopropane-1,1-dicarboxamide]	10 to 100 nM
O=C(Nc1ccc(F)cc1)C1(C(=O)Nc2ccc(Oc3ccnc4cc(-c5cnn(C6COC6)c5)ccc34)cc2)CC1 [Compound 24, 1-N′-(4-Fluorophenyl)-1-N-[4-[7-[1-(oxetan-3-yl)pyrazol-4-yl]quinolin-4-yl]oxyphenyl]cyclopropane-1,1-dicarboxamide]	≤ 10 nM

— patent US12503438B2, “Compounds for the treatment of kinase-dependent disorders” (Exelixis, Inc., priority 2019, dated 2025)
